Entries after “also recorded” stand apart in the source; their conditions may differ.

Data set [1] relates to HT22 (mouse hippocampal) cells. Particulars: J. Neurochem. 119:839-847 (2011); cited from earlier work.
Data set [2] relates to PC12 (rat adrenal medulla tumor) cells. Particulars: FEBS Lett. 580:6972-6976 (2006); cited from earlier work.
The test system of data set [3] is human bone marrow-derived cells (HBM). Format: cell-based.
Data set [4] deals with Adult Human Bone Marrow Cells. Description: CLQ treatment of adult human bone marrow cells, CTB-Alexa488 staining (Example 2). Format: cell-based. Conditions: 50 uM CLQ, 48 h, CTB-Alexa488, FIG. 2; listed as CLQ.
In data set [5] the test system is Parkinson's disease subjects. Conditions: cited from earlier work.

In the case of `CCN(CC)CCCC(C)Nc1ccnc2cc(Cl)ccc12` (stereo not drawn) [Chloroquine, chloroquine], the GM1 levels result in data set [1] is “only moderately increased GM1 levels”. In data set [2], the accumulation entry is “induce accumulation”. Moreover, in data set [3], the “up-regulation of GM1 expression vs control” value is recorded as “approximately 8 fold”. In addition, the “accumulation of GM1 vs control” value in data set [4] was “significantly higher accumulation of GM1; also recorded: abundant and intense compared to control conditions”.
For the molecule GM1, in data set [5] (five-year study, J. Neurol. Sci. 292:45-51 (2010)), the “safety of long-term use” value was “safe”. In data set [5] (short-term treatment, Neurology 50:1630-1636 (1998)), the effect on symptoms entry is listed as “significant symptom reduction”.

The record behind these values is patent US20150025234A1, “GANGLIOSIDE COMPOSITIONS” (priority 2013, published 2015).
